Entries after “also recorded” stand apart in the source; their conditions may differ. Read-outs that look alike come from different tables or passages of the source.
Assays:
[1] = target: T1, rNaV1.4 expressed in CHO cells (Rattus norvegicus, UniProt P15390); assay: Steady-state inactivation, whole-cell recording, Boltzmann fit; format: cell-based
T1 construct: expressed in transfected cells; host or cells: CHO cells
Procedure: . The channels were modified by perfusing the cells with buffered solution containing aconitine at the given concentrations and then simple pulses (10 ms pulses to 0 mV from −100 mV holding potential) were recorded until the currents leveled to a steady value (typically ˜1000 pulses). Steady-state fast inactivation of the current was then determined by delivering 500 ms conditioning pulses to potentials ranging from −130 to −11 mV (7 my increments) immediately followed by a 10 ms test pulse to 0 mV to test the available current. The peak current measured during the test pulse was normalized to the maximum peak current recorded in the conditioning pulses. […] Midpoint voltage V0.5 represents the membrane potential at which half maximum current is observed; slope factor at midpoint k quantifies the rate at which the inactivation response occurs.

[2] = target: T1, rNaV1.4 expressed in CHO cells; assay: Na+ current block at steady state, whole-cell patch clamp with pulse trains; format: cell-based; conditions: for depolarizing pulses required to reach steady-state block: 10 Hz pulse trains
Procedure: Binding of aconitine to NaV is use-dependent and is known to result both in a left shift of the current-voltage (I-V) relationship and in partial block of the channel. […] To determine whether aconitine binding is reversible, two experiments were designed. First, as block by aconitine is known to be use dependent, peak current was measured as a function of pulse number in the presence of two different concentrations of aconitine. Since aconitine binds preferentially to the open state of the sodium channel, a pulse train was applied sequentially with a control pulse used to record peak current. The pulse train consisted of a series of 50 depolarizing pulses (from −100 mV holding potential to 0 mV, 10 ms duration) applied at 10 Hz frequency, while the control pulse consisted of a single depolarizing pulse (from −100 mV holding potential to 0 mV test potential, 10 ms duration).
Pulse trains of 10 Hz frequency and control pulses were applied sequentially to cells expressing rNaV1.4, and currents elicited from the control pulse were recorded after each pulse train. This process was repeated until the current elicited from the control pulse had reached a steady state and was no longer decreasing with each additional pulse train. If block were irreversible, this steady state current would be expected to be independent of toxin concentration—the toxin would not be able to dissociate from its receptor, and the number of toxin molecules is much greater than the number of sodium channels (assuming a 100 μL chamber containing 1000 CHO cells, each expressing 10,000 sodium channels, at 50 μM concentration toxin molecules outnumber receptors by a factor of 3×10^8:1), therefore, all receptors would eventually reach the bound state.
Block by aconitine is known to be use-dependent, therefore the use-dependence of the C14 derivatives of aconitine was evaluated. Peak Na current was measured as a function of pulse number in the presence of different concentrations of the molecules. […] Since aconitine binds preferentially to the open state of the sodium channel, a pulse train was applied sequentially with a control pulse used to record peak current. The pulse train consisted of a series of 50 depolarizing pulses (from −100 mV holding potential to 0 mV, 10 ms duration) applied at 10 Hz frequency, while the control pulse consisted of a single depolarizing pulse (from −100 mV holding potential to 0 mV test potential, 10 ms duration).
Pulse trains of 10 Hz frequency and control pulses were applied sequentially to CHO cells expressing rNaV1.4, and currents elicited from the control pulse were recorded after each pulse train. This process was repeated until the current elicited from the control pulse had reached a steady state and was no longer decreasing with each additional pulse train. If block were irreversible, this steady state current would be expected to be independent of toxin concentration—the toxin would not be able to dissociate from its receptor, and the number of toxin molecules is much greater than the number of sodium channels, therefore, all receptors would eventually reach the bound state.
The ability of the synthesized aconitine derivatives to block NaV channels was evaluated with patch-clamp experiments in the whole-cell configuration on CHO cells expressing rNaV1.4 heterologously. A buffer solution containing the toxin was applied to the cells, whole-cell Na^+ currents were recorded until the decreasing current reached a steady-state (300 to 3000 pulses, depending on the molecules and concentrations). The peak Na^+ currents were measured with a depolarizing test pulse (from −100 mV holding potential to 0 mV test potential, 10 ms duration).

[3] = target: T1, rNaV1.4 expressed in CHO cells; assay: Activation: current-voltage (I-V) and conductance-voltage (G-V) relationship, whole-cell recording; format: cell-based
Procedure: To determine if the shift in I-V relationship is affected by the aromaticity of the aconitine C14 benzoate, current-voltage relationships were recorded for control cells expressing NaV, those that had been modified by aconitine, and those that had been modified by aconitine C14-cyclohexanoate 4.8d. For the modified channels, solutions of 50 μM concentration of the respective toxins were perfused onto the cells, and then depolarizing pulses were applied until a steady state current was observed, generally requiring about 1000 pulses. At that time, current-voltage relationships were again recorded. […] A shift towards hyperpolarizing potentials is clearly observed in both cases. Currents recorded at −50 mV are highlighted for all three experiments.
To determine the effect on current-voltage (I-V) relationship of the aconitine derivatives, whole cell currents were recorded in cells expressing NaV in the presence of aconitine derivatives. Control I-V plots were recorded with unmodified NaV1.4, to which were compared NaV channels modified by aconitine as well as by selected analogs. For the modified channels, solutions of the respective toxins were perfused onto the cells, and then depolarizing pulses were applied until a steady state current was observed, generally requiring about 1000 pulses. A sequence of test pulses was then recorded to determine the current-voltage relationships (using a step protocol in which CHO cells were depolarized for 10 ms from a holding potential of −100 mV to a range of potentials from −95 mV to +30 mV in 5 or 10 mV increments; peak currents were normalized to the maximum peak current and plotted against voltage).

[4] = target: T1, rNaV1.4 expressed in CHO cells; format: cell-based
Procedure: […] […] It is noteworthy that little or no increase in current was observed during wash off when no depolarizing pulses were applied and peak current was measured as a function of time.
Since the molecules bind to the open-state of the Nav channel their release also requires activation pulses. In typical experiments, buffered external solution was perfused and a pulse train sequence was applied to the patch-clamp until the current reached a steady-state for at least two minutes.

[5] = target: NaV1.2 (Homo sapiens, UniProt Q99250); conditions: cited from earlier work
[6] = target: NaV1.8 (Homo sapiens, UniProt Q9Y5Y9); conditions: cited from earlier work
Sequence of NaV1.8 (Q9Y5Y9 whole entry, looked up): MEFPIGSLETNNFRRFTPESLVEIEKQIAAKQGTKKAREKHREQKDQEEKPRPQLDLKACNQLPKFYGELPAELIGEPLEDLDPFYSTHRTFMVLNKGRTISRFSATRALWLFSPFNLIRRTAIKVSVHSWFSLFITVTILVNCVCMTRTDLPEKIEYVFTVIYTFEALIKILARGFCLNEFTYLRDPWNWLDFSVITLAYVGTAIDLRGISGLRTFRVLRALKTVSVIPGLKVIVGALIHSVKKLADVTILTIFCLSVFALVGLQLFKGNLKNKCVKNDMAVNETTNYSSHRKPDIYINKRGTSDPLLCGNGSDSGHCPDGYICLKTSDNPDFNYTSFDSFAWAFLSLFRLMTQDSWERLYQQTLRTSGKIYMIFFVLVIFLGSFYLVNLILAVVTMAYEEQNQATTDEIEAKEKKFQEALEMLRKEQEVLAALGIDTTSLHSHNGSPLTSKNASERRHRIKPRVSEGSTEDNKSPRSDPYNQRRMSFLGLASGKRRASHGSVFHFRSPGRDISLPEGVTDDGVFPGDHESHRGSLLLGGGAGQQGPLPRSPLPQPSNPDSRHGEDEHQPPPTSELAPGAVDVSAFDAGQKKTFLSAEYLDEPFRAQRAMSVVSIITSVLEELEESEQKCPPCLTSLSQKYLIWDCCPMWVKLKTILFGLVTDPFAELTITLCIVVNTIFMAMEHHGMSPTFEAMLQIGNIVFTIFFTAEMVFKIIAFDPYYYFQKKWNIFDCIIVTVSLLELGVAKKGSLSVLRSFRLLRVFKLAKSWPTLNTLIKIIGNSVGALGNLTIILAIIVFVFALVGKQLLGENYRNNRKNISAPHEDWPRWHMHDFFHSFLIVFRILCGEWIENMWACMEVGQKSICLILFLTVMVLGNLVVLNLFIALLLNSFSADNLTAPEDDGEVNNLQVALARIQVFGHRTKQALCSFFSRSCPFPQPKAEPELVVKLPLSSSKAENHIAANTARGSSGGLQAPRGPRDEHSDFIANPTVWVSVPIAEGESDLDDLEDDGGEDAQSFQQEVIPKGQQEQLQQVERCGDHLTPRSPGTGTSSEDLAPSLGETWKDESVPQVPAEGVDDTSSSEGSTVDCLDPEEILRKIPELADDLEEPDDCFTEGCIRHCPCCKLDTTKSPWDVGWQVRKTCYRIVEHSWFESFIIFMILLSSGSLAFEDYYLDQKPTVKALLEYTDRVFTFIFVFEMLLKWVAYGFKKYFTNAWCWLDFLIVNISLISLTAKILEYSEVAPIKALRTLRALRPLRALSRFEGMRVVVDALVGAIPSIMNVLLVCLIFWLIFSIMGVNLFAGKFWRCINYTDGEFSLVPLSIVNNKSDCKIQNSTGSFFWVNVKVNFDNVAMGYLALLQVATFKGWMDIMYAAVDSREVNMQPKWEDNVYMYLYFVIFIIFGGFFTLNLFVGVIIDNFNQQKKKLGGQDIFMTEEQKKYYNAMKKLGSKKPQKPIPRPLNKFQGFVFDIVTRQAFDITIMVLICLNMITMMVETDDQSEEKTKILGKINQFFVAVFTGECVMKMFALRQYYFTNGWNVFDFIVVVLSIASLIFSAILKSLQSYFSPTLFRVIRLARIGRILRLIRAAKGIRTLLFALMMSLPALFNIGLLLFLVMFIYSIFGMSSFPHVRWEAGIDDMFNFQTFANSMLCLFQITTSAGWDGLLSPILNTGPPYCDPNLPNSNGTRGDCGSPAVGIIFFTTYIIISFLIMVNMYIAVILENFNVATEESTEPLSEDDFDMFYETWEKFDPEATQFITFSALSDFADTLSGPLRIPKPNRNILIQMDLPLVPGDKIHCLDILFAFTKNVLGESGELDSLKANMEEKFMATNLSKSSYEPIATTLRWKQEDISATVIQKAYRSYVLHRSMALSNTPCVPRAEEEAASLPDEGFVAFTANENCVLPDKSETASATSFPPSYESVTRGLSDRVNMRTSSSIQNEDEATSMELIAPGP

T1 sequence (P15390 whole entry): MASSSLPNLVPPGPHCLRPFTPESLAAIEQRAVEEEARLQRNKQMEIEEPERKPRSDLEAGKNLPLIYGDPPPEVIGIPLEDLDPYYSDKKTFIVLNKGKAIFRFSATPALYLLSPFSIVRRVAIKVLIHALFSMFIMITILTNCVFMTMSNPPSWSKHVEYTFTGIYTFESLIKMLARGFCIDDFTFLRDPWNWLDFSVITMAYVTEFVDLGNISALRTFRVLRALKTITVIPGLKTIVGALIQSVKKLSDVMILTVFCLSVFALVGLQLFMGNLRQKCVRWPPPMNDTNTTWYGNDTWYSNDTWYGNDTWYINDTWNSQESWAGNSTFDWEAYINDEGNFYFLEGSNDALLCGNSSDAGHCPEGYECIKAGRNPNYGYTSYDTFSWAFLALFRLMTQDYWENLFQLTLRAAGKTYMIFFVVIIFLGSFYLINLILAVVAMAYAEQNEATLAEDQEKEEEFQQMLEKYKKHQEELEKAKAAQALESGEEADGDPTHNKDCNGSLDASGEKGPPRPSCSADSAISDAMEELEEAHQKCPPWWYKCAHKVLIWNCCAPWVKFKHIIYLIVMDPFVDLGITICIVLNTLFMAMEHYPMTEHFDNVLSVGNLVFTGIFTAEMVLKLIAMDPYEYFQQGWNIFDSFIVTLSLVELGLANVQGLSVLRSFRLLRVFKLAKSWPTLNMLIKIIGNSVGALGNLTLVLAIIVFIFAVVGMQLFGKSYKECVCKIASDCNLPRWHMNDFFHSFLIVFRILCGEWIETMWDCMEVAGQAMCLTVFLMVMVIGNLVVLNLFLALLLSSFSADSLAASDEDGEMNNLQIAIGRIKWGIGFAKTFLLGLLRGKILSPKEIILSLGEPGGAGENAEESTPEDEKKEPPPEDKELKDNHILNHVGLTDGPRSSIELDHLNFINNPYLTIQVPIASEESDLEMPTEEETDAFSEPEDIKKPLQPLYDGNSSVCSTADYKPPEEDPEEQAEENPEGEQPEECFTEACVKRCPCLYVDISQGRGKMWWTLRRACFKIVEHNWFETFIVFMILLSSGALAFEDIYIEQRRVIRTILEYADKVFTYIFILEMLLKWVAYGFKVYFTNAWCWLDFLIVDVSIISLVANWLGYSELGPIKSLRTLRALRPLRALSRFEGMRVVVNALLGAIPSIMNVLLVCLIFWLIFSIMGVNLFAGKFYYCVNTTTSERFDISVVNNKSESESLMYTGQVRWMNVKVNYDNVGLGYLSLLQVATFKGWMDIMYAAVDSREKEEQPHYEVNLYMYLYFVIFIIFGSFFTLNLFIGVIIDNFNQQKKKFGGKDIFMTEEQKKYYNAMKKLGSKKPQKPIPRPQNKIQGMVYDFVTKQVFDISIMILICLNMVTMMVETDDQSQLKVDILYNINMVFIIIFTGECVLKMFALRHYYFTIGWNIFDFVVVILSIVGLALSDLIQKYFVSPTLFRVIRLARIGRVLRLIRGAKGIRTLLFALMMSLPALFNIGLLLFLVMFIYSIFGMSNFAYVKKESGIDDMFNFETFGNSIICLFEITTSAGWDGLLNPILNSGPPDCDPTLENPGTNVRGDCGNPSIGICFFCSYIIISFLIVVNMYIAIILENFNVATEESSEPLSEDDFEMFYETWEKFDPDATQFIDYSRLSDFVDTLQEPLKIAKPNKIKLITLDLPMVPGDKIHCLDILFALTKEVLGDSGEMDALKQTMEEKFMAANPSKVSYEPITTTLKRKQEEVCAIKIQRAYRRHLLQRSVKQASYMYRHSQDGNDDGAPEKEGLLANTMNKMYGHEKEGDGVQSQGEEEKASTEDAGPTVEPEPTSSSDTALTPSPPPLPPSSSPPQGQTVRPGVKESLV

Q: Which “effect on threshold for inactivation” value ([1]; 20 μM) does the source give for CCN1CC2(COC)C3C(OC)C4C1C3(C1C[C@@]3(O)[C@H](OC(=O)C5CCCCC5)[C@@H]1[C@]4(OC(C)=O)[C@@H](O)[C@@H]3OC)[C@@H](OC)C[C@H]2O (stereo partly shown) [4.8d] here?
A: shifted the threshold for inactivation towards higher potentials

Q: And the “Steady-state inactivation V0.5 (mV)” value ([1]; 21 μM)?
A: −53.1 mV

Q: And the “Steady-state inactivation k (slope factor at midpoint)” value ([1]; 21 μM)?
A: 8.1

Q: What about the “slope factor k of steady-state inactivation” value ([1]; concentration not given, unmodified ˜6) of the same molecule?
A: ~8

Q: What about the “% Remaining current after reaching steady-state binding” value (from here on “% Remaining current”) ([2]; 5 μM) of the same molecule?
A: 82%

Q: What about the “peak current blocked at steady state” value ([2]; 20 μM) of the same molecule?
A: 85%

Q: What about the “depolarizing pulses required to reach steady-state block” value (“depolarizing pulses required” below) ([2]; 20 μM) of the same molecule?
A: around 600 pulses

Q: And the “Current measured at 20 μM (%)” value ([2]; 21 μM (footnote c), before wash-off)?
A: 15^c %

Q: What about the “% Remaining current” value ([2]; 50 μM) of the same molecule?
A: 10%

Q: And the “peak current blocked at steady state” value ([2]; 50 μM)?
A: 90%

Q: And the “depolarizing pulses required” value ([2]; 50 μM)?
A: Approximately 1000 pulses

Q: And the “% Remaining current” value ([2]; 200 μM)?
A: 6%

Q: What about the “peak current blocked at steady state” value ([2]; 200 μM) of the same molecule?
A: 94%

Q: And the “depolarizing pulses required” value ([2]; 200 μM)?
A: 200 pulses

Q: And the “shift of voltage of half-activation (V0.5) towards the hypo-polarization” value [3]?
A: more than 20 mV

Q: What about the “effect on activation threshold” value ([3]; 20 μM) of the same molecule?
A: did not significantly shift the activation threshold

Q: And the “hypopolarized shift of potential of maximum current” value ([3]; 20 μM)?
A: 10 mV

Q: What about the “membrane potential at which maximum current is observed” value ([3]; 20 μM) of the same molecule?
A: 0 mV

Q: And the “Activation V0.5 (mV)” value ([3]; 21 μM)?
A: 1.3 mV

Q: What about the Activation hg ([3]; 21 μM) of the same molecule?
A: 15.4

Q: And the “current at −50 mV” value ([3]; 50 μM, after about 1000 pulses, no current in control cells)?
A: substantial currents; also recorded: more pronounced effect in this respect than the natural product

Q: What about the “Current after wash-off (%)” value ([4]; after wash-off of 20 μM) of the same molecule?
A: 79%

Q: And the “Current after wash-off (%)” value ([4]; after wash-off of 21 μM (footnote c))?
A: 79^c %

Q: With NC1=N[C@H](O)[C@H]2[C@H]3O[C@]4(O)O[C@@H]([C@@H](O)[C@@]2(N1)[C@@H]4O)[C@]3(O)CO [TTX, tetrodotoxin] as the molecule, how does the TTX potency [5] read?
A: 0.012 µM

Q: What about the TTX potency [6] of the same molecule?
A: 60 µM

Reference: US9085536B2, “Aconitine compounds, compositions, uses, and preparation thereof” (priority 2011, dated 2015)
